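Tested at 5 concentrations; 48 h exposure; 96-well plates; endpoints linearly interpolated, else capped at highest concentration. Here, GI50 denotes the concentration required for 50% inhibition of growth. TGI marks complete inhibition of growth.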
These compounds were tested on RXF 393 renal (assay: growth of human tumour cells (NCI), 48 h).
For `Cc1ccc2c3c(c(=O)[nH]c2c1)C1(C(C#N)=C(N)O3)c2cc(Br)ccc2-c2ccc(Br)cc21`, the GI50 was 1.53 µM and the TGI was 3.13 µM.

These compounds were tested on MCF7 breast (assay: growth of human tumour cells (NCI), 48 h).
Work on `CCOC(=O)C1(C(=O)OCC)C[C@H](C)[C@](C)(O)C1` yielded a TGI of over 100 µM. With `COc1cc2c3c(n(CCNCCCNCCn4c5c(c6cc(OC)c(OC)cc6c4=O)C(=O)c4ccccc4-5)c(=O)c2cc1OC)-c1ccccc1C3=O` the GI50 was 0.0878 µM and the TGI was 2.9 µM. Work on `Cc1ccc2c3c(c(=O)[nH]c2c1)C1(C(C#N)=C(N)O3)c2cc(Br)ccc2-c2ccc(Br)cc21` yielded a GI50 of 2.1 µM and a TGI of 5.76 µM.

Each compound was assayed on 786-0 renal (assay: growth of human tumour cells (NCI), 48 h).
In the case of `CCOC(=O)C1(C(=O)OCC)C[C@H](C)[C@](C)(O)C1`, the TGI is reported as over 100 µM. With `COc1cc2c3c(n(CCNCCCNCCn4c5c(c6cc(OC)c(OC)cc6c4=O)C(=O)c4ccccc4-5)c(=O)c2cc1OC)-c1ccccc1C3=O` the GI50 was 0.186 µM and the TGI was 6.17 µM. With `COc1cc(/C=C2\CN(C)CC3=C2NC(=S)NC3c2cc(OC)c(OC)c(OC)c2)cc(OC)c1OC` (configuration not stated) the TGI was over 100 µM. `CC(C)(C)[Si](C)(C)OCC1OC(n2cc(I)c(N)nc2=O)C(O[Si](C)(C)C(C)(C)C)C1O[Si](C)(C)C(C)(C)C` (configuration not stated) gave a TGI of 9.09 µM. `COc1cc(O)c2c(c1)OCC(Cc1ccc(O)cc1)C2=O` (configuration not stated) showed a TGI of over 100 µM. `Cc1ccc2c3c(c(=O)[nH]c2c1)C1(C(C#N)=C(N)O3)c2cc(Br)ccc2-c2ccc(Br)cc21` was tested, and the GI50 was 2.46 µM and the TGI was 6.01 µM.

These compounds were tested on NCI-H460 lung (assay: growth of human tumour cells (NCI), 48 h).
In the case of `CCOC(=O)C1(C(=O)OCC)C[C@H](C)[C@](C)(O)C1`, the TGI is reported as over 100 µM. `COc1cc2c3c(n(CCNCCCNCCn4c5c(c6cc(OC)c(OC)cc6c4=O)C(=O)c4ccccc4-5)c(=O)c2cc1OC)-c1ccccc1C3=O` was tested, and the GI50 was 0.0719 µM and the TGI was 4.68 µM. In the case of `COc1cc(/C=C2\CN(C)CC3=C2NC(=S)NC3c2cc(OC)c(OC)c(OC)c2)cc(OC)c1OC` (configuration not stated), the TGI is reported as over 100 µM. In the case of `CC(C)(C)[Si](C)(C)OCC1OC(n2cc(I)c(N)nc2=O)C(O[Si](C)(C)C(C)(C)C)C1O[Si](C)(C)C(C)(C)C` (configuration not stated), the TGI is reported as 22 µM. `COc1cc(O)c2c(c1)OCC(Cc1ccc(O)cc1)C2=O` (configuration not stated) was tested, and the TGI was over 100 µM. Compound `Cc1ccc2c3c(c(=O)[nH]c2c1)C1(C(C#N)=C(N)O3)c2cc(Br)ccc2-c2ccc(Br)cc21` has a GI50 of 2.09 µM and a TGI of 4.67 µM.

The compounds below were run on RPMI-8226 leukemia (assay: growth of human tumour cells (NCI), 48 h).
With `CCOC(=O)C1(C(=O)OCC)C[C@H](C)[C@](C)(O)C1` the TGI was over 100 µM. `COc1cc2c3c(n(CCNCCCNCCn4c5c(c6cc(OC)c(OC)cc6c4=O)C(=O)c4ccccc4-5)c(=O)c2cc1OC)-c1ccccc1C3=O` gave a GI50 of under 0.018 µM and a TGI of 0.614 µM. `COc1cc(O)c2c(c1)OCC(Cc1ccc(O)cc1)C2=O` (configuration not stated) gave a TGI of over 100 µM. For `Cc1ccc2c3c(c(=O)[nH]c2c1)C1(C(C#N)=C(N)O3)c2cc(Br)ccc2-c2ccc(Br)cc21`, the GI50 was 4.5 µM and the TGI was 23.7 µM.

What follows are compounds tested on PC-3 prostate (assay: growth of human tumour cells (NCI), 48 h).
`CCOC(=O)C1(C(=O)OCC)C[C@H](C)[C@](C)(O)C1` gave a TGI of over 100 µM. In the case of `COc1cc2c3c(n(CCNCCCNCCn4c5c(c6cc(OC)c(OC)cc6c4=O)C(=O)c4ccccc4-5)c(=O)c2cc1OC)-c1ccccc1C3=O`, the GI50 is reported as 0.0865 µM and the TGI is reported as 2.09 µM. `COc1cc(/C=C2\CN(C)CC3=C2NC(=S)NC3c2cc(OC)c(OC)c(OC)c2)cc(OC)c1OC` (configuration not stated) was tested, and the TGI was over 100 µM. For `CC(C)(C)[Si](C)(C)OCC1OC(n2cc(I)c(N)nc2=O)C(O[Si](C)(C)C(C)(C)C)C1O[Si](C)(C)C(C)(C)C` (configuration not stated), the TGI was 25 µM. In the case of `COc1cc(O)c2c(c1)OCC(Cc1ccc(O)cc1)C2=O` (configuration not stated), the TGI is reported as over 100 µM. With `Cc1ccc2c3c(c(=O)[nH]c2c1)C1(C(C#N)=C(N)O3)c2cc(Br)ccc2-c2ccc(Br)cc21` the GI50 was 1.85 µM and the TGI was 4 µM.

Each compound was assayed on ACHN renal (assay: growth of human tumour cells (NCI), 48 h).
With `CCOC(=O)C1(C(=O)OCC)C[C@H](C)[C@](C)(O)C1` the TGI was over 100 µM. `COc1cc2c3c(n(CCNCCCNCCn4c5c(c6cc(OC)c(OC)cc6c4=O)C(=O)c4ccccc4-5)c(=O)c2cc1OC)-c1ccccc1C3=O` showed a GI50 of 0.693 µM and a TGI of over 56.3 µM. `COc1cc(/C=C2\CN(C)CC3=C2NC(=S)NC3c2cc(OC)c(OC)c(OC)c2)cc(OC)c1OC` (configuration not stated) gave a TGI of over 100 µM. Compound `CC(C)(C)[Si](C)(C)OCC1OC(n2cc(I)c(N)nc2=O)C(O[Si](C)(C)C(C)(C)C)C1O[Si](C)(C)C(C)(C)C` (configuration not stated) has a TGI of 22 µM. `COc1cc(O)c2c(c1)OCC(Cc1ccc(O)cc1)C2=O` (configuration not stated) showed a TGI of over 100 µM. `Cc1ccc2c3c(c(=O)[nH]c2c1)C1(C(C#N)=C(N)O3)c2cc(Br)ccc2-c2ccc(Br)cc21` gave a GI50 of 1.87 µM and a TGI of 4.15 µM.

The compounds below were run on HCC-2998 colon (assay: growth of human tumour cells (NCI), 48 h).
In the case of `COc1cc2c3c(n(CCNCCCNCCn4c5c(c6cc(OC)c(OC)cc6c4=O)C(=O)c4ccccc4-5)c(=O)c2cc1OC)-c1ccccc1C3=O`, the GI50 is reported as 0.0685 µM and the TGI is reported as 0.978 µM. `Cc1ccc2c3c(c(=O)[nH]c2c1)C1(C(C#N)=C(N)O3)c2cc(Br)ccc2-c2ccc(Br)cc21` was tested, and the GI50 was 2.15 µM and the TGI was 4.74 µM.

The compounds below were run on SK-MEL-2 melanoma (assay: growth of human tumour cells (NCI), 48 h).
Work on `CCOC(=O)C1(C(=O)OCC)C[C@H](C)[C@](C)(O)C1` yielded a TGI of over 100 µM. In the case of `COc1cc2c3c(n(CCNCCCNCCn4c5c(c6cc(OC)c(OC)cc6c4=O)C(=O)c4ccccc4-5)c(=O)c2cc1OC)-c1ccccc1C3=O`, the GI50 is reported as 1.04 µM and the TGI is reported as 15.2 µM.

— PubChem BioAssay (NCI)
